Data as given in patent US8765809B2, “Ester derivative and use thereof” (Ajinomoto Co., Inc., priority 2006, dated 2014).

How the values were obtained:
[1] = Stability of compound: recovery rate (isolation yield) after contact with silica gel (PTLC); type: physicochemical; conditions: for recovery at 30 min: PTLC, silica gel stirred with ethyl acetate 30 min, read-out: isolation yield (recovery rate) after PTLC, taken as stability upon contact with silica gel; for stability upon contact with silica gel: isolation and purification by PTLC
Description: As mentioned above, the reaction yields of the compounds of respective Examples were determined by applying the products obtained by a condensation reaction to PTLC and stirring the silica gel containing the object compound with ethyl acetate for 30 min, followed by filtration and concentration under reduced pressure. Since the condensation reaction proceeds at a conversion rate of not less than 90% for all compounds, the recovery rate (yield) of each compound is considered to reflect stability upon contact of the compound with the silica gel.
Using vanillyl alcohol (1.70 g, 11.0 mmol) instead of homovanillyl alcohol, and n-decanoic acid (1.72 g, 10 mmol) instead of 8-methylnonanoic acid in Example 1, similar reaction was performed. The residue was purified by PTLC to find that the yield of the obtained vanillyl decanoate was 1.33 g (4.31 mmol, 43.1%), and vanillyl decanoate was decomposed (i.e., unstabilized) by the contact with silica gel.

[2] = tested on: auricle of hairless mouse; assay: Measurement of external blood circulation enhancing action: vasodilatory effect (red spots) after application to the ear; type: in vivo, hairless mouse (HR-1, female); set-up: key to Vasodilatory effect for hairless mouse (red spots) / Vasodilatory effect on hairless mouse (red spots): O: clear red spots is confirmed; Δ: weak red spots is confirmed; x: no development of red spots; conditions: for Vasodilatory effect for hairless mouse (red spots): 5 wt % (liquid paraffin), first column of Table 2; for vasodilatory / blood circulation enhancing effect, summary in words: summary of Tables 2 to 4; for Vasodilatory effect on hairless mouse (red spots) / weak red spots were observed at, time after application: 5 wt % (ethanol)
Description: The compound of each Example, capsinoid derivative and capsaicin were compared for vasodilatory effect using auricle of hairless mouse. A sample was applied to the right ear of hairless mouse (HR-1, female), and a control was applied to the left ear. […]

[3] = Solubility of sample in liquid paraffin (note to Table 2); type: physicochemical; conditions: 5 wt % in liquid paraffin
[4] = application of 5 wt % in liquid paraffin

| Compound | recovery at 30 min [1] [%] | stability upon contact with silica gel [1] | solubility (note, words) [3] | Vasodilatory effect for hairless mouse (red spots) [2] | blood circulation enhancing effect (note, words) [2, 4] | red spots disappeared in [2, 4] | vasodilatory / blood circulation enhancing effect, summary in words [2] | Vasodilatory effect on hairless mouse (red spots) [2] | weak red spots were observed at, time after application [2] |
| --- | --- | --- | --- | --- | --- | --- | --- | --- | --- |
| COc1cc(CCOC(=O)CCCCCCC(C)C)ccc1O [compound I, homovanillyl 8-methylnonanoate] | 93.2 | far stabler than vanillyl decanoate |  | Δ | effect was weak and | disappeared in 1 hr | weak blood circulation enhancing effect |  |  |
| COc1cc(CO)ccc1O [vanillyl alcohol, reference compound] |  |  |  | x | Application of 5 wt %: no blood |  |  | x |  |
| CCCCCCCCCC(=O)OCc1ccc(O)c(OC)c1 [vanillyl decanoate, reference compound] | 43.1 | decomposed |  |  |  |  |  |  |  |

More lines, main results first:

| recovery at 30 min [1] [%] | stability upon contact with silica gel [1] | solubility (note, words) [3] | Compound | Vasodilatory effect for hairless mouse (red spots) [2] | blood circulation enhancing effect (note, words) [2, 4] | red spots disappeared in [2, 4] | vasodilatory / blood circulation enhancing effect, summary in words [2] | Vasodilatory effect on hairless mouse (red spots) [2] | weak red spots were observed at, time after application [2] |
| --- | --- | --- | --- | --- | --- | --- | --- | --- | --- |
|  |  | sparingly soluble, thus red | COc1cc(CCOC(=O)CCCCCC(C)C)ccc1O [compound I-1, homovanillyl 7-methyloctanoate] | x |  |  | weak blood circulation enhancing effect | Δ | Weak red spots were observed at 20 min |
|  |  | sparingly soluble, thus red | COc1cc(CCOC(=O)CCCCC(C)C)ccc1O [compound I-2, homovanillyl 6-methylheptanoate] | x |  |  | weak blood circulation enhancing effect | Δ | Weak red spots were observed at 20 min |
|  |  | sparingly soluble, thus red | COc1cc(CCOC(=O)CCCC(C)C)ccc1O [compound I-3, homovanillyl 5-methylhexanoate] | x |  |  | weak blood circulation enhancing effect | Δ | Weak red spots were observed at 20 min |
